Laboratory results reported in article PMC4747952, “Development of TASP0410457 (TASP457), a novel dihydroquinolinone derivative as a PET radioligand for central histamine H3 receptors” (EJNMMI Research, 2016).

Target: T1, H3Rs (Macaca mulatta, UniProt Q865E1)
T1 construct: from tissue; host or cells: brain of living rhesus monkeys
Test: PET in conscious rhesus monkey
Type: in vivo, rhesus monkey (Macaca mulatta)
Procedure: A male rhesus monkey (Macaca mulatta, weighing 6–7 kg) was used for a comparative PET analysis of [^11C]TASP0410457 and [^11C]TASP0434988. PET scans were performed using a high-resolution SHR-7700 animal PET camera (Hamamatsu Photonics, Hamamatsu, Japan). Following transmission scans for attenuation correction using a ^68Ge-^68Ga point source, emission scans were performed on a conscious monkey as described previously, in 3D acquisition mode (frames: 10 s × 12, 30 s × 6, 1 min × 5, 2 min × 5 and 5 min × 14) for 90 min after the intravenous injection of [^11C]TASP0410457 (169–176 MBq) or [^11C]TASP0434988 (173–188 MBq). Briefly, the monkey was immobilized by joining the acrylic cap on the monkey head with the fixation device during PET scans. To assess a homologous competition for the target binding sites, unlabeled TASP0410457 or TASP0434988 was injected intravenously at a dose of 1 mg/kg at 30 s before injection of the corresponding radioligand.
Emission scan images were reconstructed using a 4.0-mm Colsher filter. ROIs were placed on the anterior cingulate cortex, striatum, thalamus, hippocampus, cerebellum, frontal cortex, temporal cortex, occipital cortex, and pons-medulla using PMOD software, with reference to an MRI template as described previously. Tissue TACs were generated as in the rat PET image analysis.

T1 sequence (Q865E1 1-445): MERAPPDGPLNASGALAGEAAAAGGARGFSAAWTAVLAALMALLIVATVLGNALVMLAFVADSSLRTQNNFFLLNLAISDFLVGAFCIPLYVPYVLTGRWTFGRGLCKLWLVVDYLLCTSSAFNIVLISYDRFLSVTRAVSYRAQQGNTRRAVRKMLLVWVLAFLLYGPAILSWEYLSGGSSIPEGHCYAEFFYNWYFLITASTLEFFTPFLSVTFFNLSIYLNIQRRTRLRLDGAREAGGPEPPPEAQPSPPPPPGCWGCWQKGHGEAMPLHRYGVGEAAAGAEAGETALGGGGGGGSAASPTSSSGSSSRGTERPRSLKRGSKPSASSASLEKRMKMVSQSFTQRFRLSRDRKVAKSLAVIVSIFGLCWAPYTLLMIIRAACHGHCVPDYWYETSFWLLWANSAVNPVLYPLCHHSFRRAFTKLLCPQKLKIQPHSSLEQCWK

[11CH3]Oc1ccc(N2C(=O)CCc3cc(OC4CCN(C5CCC5)CC4)ccc32)cn1 [[^11C]TASP0410457]
peak SUV in the striatum (another monkey in a conscious condition (additional PET study)): 3.0
time of peak brain uptake after the injection (conscious monkey PET): ≤ 30 min
peak SUV in the striatum (first conscious monkey): 3.4
